In patent publication US20200188361A1, “USE OF MITOCHONDRIAL ACTIVITY INHIBITORS FOR THE TREATMENT OF POOR PROGNOSIS ACUTE MYELOID LEUKEMIA” (UNIVERSITE DE MONTREAL, priority 2016, published 2020):

Columns and labels:
[1] = tested on: Complex I enzyme activity in OCI-AML3 cells; settings: FIG. 8
Description: Complex I activity is determined by following the oxidation of NADH to NAD+ and the simultaneous reduction of a dye which leads to increased absorbance at OD=450 nm.

[2] = tested on: HOX-high AML patient cells; experiment: Primary chemical screen of 60 compounds, cell dose-response viability assay (CellTiterGlo, 6 days); assay type: cell-based, human
Description: (§1) frozen AML mono-nucleated cells were thawed at 37° C. in Iscove's modified Dulbecco's medium (IMDM) containing 20% FBS and DNase I (100 μg/mL).
(§2) All powders were dissolved in DMSO and diluted in culture medium immediately before use. Final DMSO concentration in all conditions was 0.1%. The 60 compounds were purchased from various suppliers including Santa Cruz, Selleckchem, Calbiochem, AdooQ Bioscience, Cayman chemical and Synkinase.
(§3) Patient cells were seeded in 384-well plates at a density of 5,000 cells in 50 μL per well. In the initial screen, compounds were added to seeded cells in serial dilutions (10 dilutions, 1:3, starting from 10 μM or 20 μM), in duplicates. Cells treated with 0.1% DMSO without additional compound were used as negative controls. Viable cell counts per well were evaluated after 6 days of culture using the CellTiterGlo® assay (Promega®) according to the manufacturer's instruction.
(§4) Using high expression of HOXA9 and HOXA10 as a surrogate for the detection of HOX-network-high patient samples, the survival of HOX-high versus HOX-med/low specimens contacted with 60 inhibitors targeting receptor tyrosine kinases (RTK), members of the RAS and PI3K pathways, was assessed (FIG. 2A, Table 4).

[3] = tested on: HOX-med/low AML patient cells; experiment: as above; assay type: cell-based, human; settings: Homo sapiens, 144 h; primary screen; mean over HOX-med/low patient specimens; 6 days culture; top concentration 10 μM or 20 μM; read-out: MEAN EC50 HOX-med/low
Description: as §1, §2, §3, §4

[4] = tested on: Normal primitive CD34-positive cord blood cells; experiment: cells; settings: Homo sapiens, read-out: EC50 in normal primitive CD34-positive cord blood cells
Description: as §3, with “instruction. The percent of inhibition was calculated as follows: 100−(100×(mean luminescence(compound)/mean luminescence(DMSO)); where mean-luminescence(compound) corresponds to the average of luminescent signals obtained for the compound-treated cells, and mean-luminescence(DMSO) corresponds to the average of luminescent signals obtained for the control DMSO-treated cells.” for “instruction.”

OCI-AML3 cells [5] = tested on: OCI-AML3 cells
Description: LC/MS Metabolite Measurements (Citric Acid Cycle Intermediates and Glutathione) LC/MS metabolite measurements were carried out at the McGill Metabolomics platform. Authentic metabolite standards were purchased from Sigma-Aldrich Co., while the following LC/MS grade solvents and additives were purchased from Fisher: ammonium acetate, formic acid, water, methanol, and acetonitrile. OCI-AML3 cells (5 million cells, quadruplicates, treated with either DMSO or Mubritinib 500 nM for 20 h) were washed twice with ice-cold 150 mM ammonium formate pH 7.2. Metabolites were then extracted using 380 μl of LC/MS grade 50% methanol/50% water mixture and 220 μl of cold acetonitrile. Samples were then homogenized by 1.4 mm ceramic bead beating 2 min at 30 Hz (TissueLyser, Qiagen). A volume of 300 μl of ice-cold water and 600 μl of ice-cold methylene chloride were added to the lysates. Samples were vortexed and allowed to rest on ice for 10 min for phase separation followed by centrifugation at 4,000 rpm for 5 min. The upper aqueous layer was transferred to a fresh pre-chilled tube. Samples were eventually dried by vacuum centrifugation operating at −4° C. (Labconco) and stored at −80° C. until ready for LC-MS/MS data collection. For LC-MS/MS analysis, specimens were first re-suspended in 50 μl of water and clarified by centrifugation for 15 min at 15,000 rpm at 1° C. Samples were maintained at 4° C. for the duration of the LC-MS/MS analysis in the autosampler.

OCI-AML3 leukemic cells = settings: 500 nM, 24 h (FIG. 5B)
Description: (§5) FIGS. 5A-5J show the results on experiments assessing the mode of action of Mubritinib for mediating tumor cell death. FIG. 5A: OCI-AML3 leukemic cells were either pre-incubated for 4 hours with 6 mM N-acetyl-cysteine (NAC), a reactive oxygen species (ROS) scavenger, or with vehicle (water) before being treated with 100 nM Mubritinib for 24 h or vehicle (DMSO). […] FIGS. 5C and 5D show the levels of reduced and oxidized levels of glutathione, respectively, in OCI-AML3 treated or not with Mubritinib, as detected by liquid chromatography-mass spectrometry (LC/MS). […] FIG. 5G is a graph depicting dose-response curves upon Mubritinib treatment (6-day culture assay in 384-well plates) of OCI-AML3 and OCI-AML5 cell lines. FIGS. 5H-J are graphs depicting dose-response curves following treatment of OCI-AML3 and OCI-AML5 cell lines with other ETC inhibitors, namely Oligomycin (inhibitor of complex V, FIG. 5H), Rotenone (inhibitor of complex I, FIG. 5I) and Deguelin (inhibitor of complex I, FIG. 5J).
(§6) Dead cells were stained using Propidium iodide at a final concentration of 1 μg/mL.

OCI-AML3 cells [6] = tested on: OCI-AML3 cells; remark: listed apart in the source
Description: as §5, §6

[7] = tested on: mitochondrial electron transfer chain (ETC) complex I; settings: cell free assay (FIG. 5F)
Description: as §5

[8] = molecular target: human epidermal growth factor receptor 2 (ERBB2/HER2) (Homo sapiens, UniProt P04626); settings: described in Nagasawa et al.; cited from earlier work
OCI-AML5 cells = settings: FIG. 5G, 6-day culture
Description: as §5, with “FIGS. 5H-J are graphs depicting dose-response curves following treatment of OCI-AML3 and OCI-AML5 cell lines with other ETC inhibitors, namely Oligomycin (inhibitor of complex V, FIG. 5H), Rotenone (inhibitor of complex I, FIG. 5I) and Deguelin (inhibitor of complex I, FIG. 5J).” left out
Patient cells were seeded in 384-well plates at a density of 5,000 cells in 50 μL per well. […] Viable cell counts per well were evaluated after 6 days of culture using the CellTiterGlo® assay (Promega®) according to the manufacturer's instruction. The percent of inhibition was calculated as follows: 100−(100×(mean luminescence(compound)/mean luminescence(DMSO)); where mean-luminescence(compound) corresponds to the average of luminescent signals obtained for the compound-treated cells, and mean-luminescence(DMSO) corresponds to the average of luminescent signals obtained for the control DMSO-treated cells.

[9] = 500 nM, 24 h, relative to DMSO control

Chain of human epidermal growth factor receptor 2 (ERBB2/HER2) (P04626 23-1255): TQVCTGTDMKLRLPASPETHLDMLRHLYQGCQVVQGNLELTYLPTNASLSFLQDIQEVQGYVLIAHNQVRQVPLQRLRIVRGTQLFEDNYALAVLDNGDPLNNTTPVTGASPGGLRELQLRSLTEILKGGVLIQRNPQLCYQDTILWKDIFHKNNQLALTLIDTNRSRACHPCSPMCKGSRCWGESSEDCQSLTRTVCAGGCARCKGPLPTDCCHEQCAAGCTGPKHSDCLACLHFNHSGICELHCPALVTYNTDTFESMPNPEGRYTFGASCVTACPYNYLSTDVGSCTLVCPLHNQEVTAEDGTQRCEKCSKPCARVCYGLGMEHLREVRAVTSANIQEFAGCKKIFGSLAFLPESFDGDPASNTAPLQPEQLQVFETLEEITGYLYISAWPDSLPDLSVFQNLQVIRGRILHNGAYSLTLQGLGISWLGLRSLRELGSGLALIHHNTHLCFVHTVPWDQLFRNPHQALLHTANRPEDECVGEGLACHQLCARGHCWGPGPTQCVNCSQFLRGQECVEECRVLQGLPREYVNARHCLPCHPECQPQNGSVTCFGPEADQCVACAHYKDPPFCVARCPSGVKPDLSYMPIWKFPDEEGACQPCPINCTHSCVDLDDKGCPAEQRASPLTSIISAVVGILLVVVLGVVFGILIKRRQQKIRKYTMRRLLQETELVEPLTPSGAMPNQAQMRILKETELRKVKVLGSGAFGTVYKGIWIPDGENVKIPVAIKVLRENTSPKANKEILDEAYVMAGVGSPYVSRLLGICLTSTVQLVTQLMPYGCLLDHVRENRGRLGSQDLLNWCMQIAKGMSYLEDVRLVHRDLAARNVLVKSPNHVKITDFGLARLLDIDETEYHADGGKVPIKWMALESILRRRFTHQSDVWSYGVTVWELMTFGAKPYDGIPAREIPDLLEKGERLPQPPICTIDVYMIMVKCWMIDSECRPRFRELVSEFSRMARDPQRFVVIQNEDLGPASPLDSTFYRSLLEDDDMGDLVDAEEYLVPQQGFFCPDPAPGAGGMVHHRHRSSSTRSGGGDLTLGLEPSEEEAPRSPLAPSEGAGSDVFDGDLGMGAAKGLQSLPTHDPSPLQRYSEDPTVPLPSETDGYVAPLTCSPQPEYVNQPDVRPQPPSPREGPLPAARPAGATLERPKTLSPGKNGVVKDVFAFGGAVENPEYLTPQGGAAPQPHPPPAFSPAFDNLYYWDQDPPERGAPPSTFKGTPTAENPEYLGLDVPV

## FC(F)(F)c1ccc(/C=C/c2nc(COc3ccc(CCCCn4ccnn4)cc3)co2)cc1 [Mubritinib, 1-(4-{4-[(2-{(E)-2-[4-(trifluoromethyl)phenyl]ethenyl}-1,3-oxazol-4-yl)methoxy]phenyl}butyl)-1H-1,2,3-triazole]
[1]
  inhibitory effect on complex I in diaphorase-type (NADH oxidation) assay: NADH-independent
[2]; Homo sapiens, 144 h, primary screen, mean over HOX-high patient specimens, 6 days culture, top concentration 10 μM or 20 μM, read-out: MEAN EC50 HOX-high
  EC50: 315 nM
[2]; primary screen (FIG. 2B)
  difference in sensitivity of HOX-high versus HOX-med/low patient cells: significantly more sensitive
[2]; ratio of mean EC50 HOX-high to mean EC50 HOX-med/low
  FOLD CHANGE High/Med-low: 0.2
[3]
  EC50: 1380 nM
[4]
  EC50: > 375 nM
OCI-AML3 cells [5]; [9]
  levels of oxidized glutathione: increased
  levels of reduced glutathione: decreased
OCI-AML3 cells [5]; OCI-AML3, Mubritinib 500 nM for 20 h vs DMSO (FIG. 6A)
  level of citrate: reduces the levels
OCI-AML3 cells [5]; OCI-AML3, Mubritinib 500 nM for 20 h vs DMSO (FIG. 6B)
  level of alpha-ketoglutarate: reduces the levels
OCI-AML3 cells [5]; OCI-AML3, Mubritinib 500 nM for 20 h vs DMSO (FIG. 6C)
  level of succinate: reduces the levels
OCI-AML3 cells [5]; OCI-AML3, Mubritinib 500 nM for 20 h vs DMSO (FIG. 6D)
  level of fumarate: reduces the levels
OCI-AML3 cells [5]; OCI-AML3, Mubritinib 500 nM for 20 h vs DMSO (FIG. 6E)
  level of malate: reduces the levels
OCI-AML3 leukemic cells
  level of ROS activity (hydroxyl, peroxyl) by DCFDA: increased
OCI-AML3 cells [6]; 4 hours pre-incubation with 6 mM NAC, then 100 nM Mubritinib for 24 h (FIG. 5A)
  Mubritinib-induced apoptosis in the presence of the ROS scavenger N-acetyl-cysteine (NAC): significantly decreased
OCI-AML3 cells [6]; 24 hours, 100 nM or 10 μM (FIG. 4C)
  Annexin V staining (marker of apoptosis): increase in Annexin V staining
OCI-AML3 cells [6]; 27 hours of treatment, compared to DMSO (FIG. 4B)
  number of dead (PI-positive) cells: increase in the number of dead (PI-positive) cells
OCI-AML3 cells [6]; four days of treatment, different concentrations, dose-dependent (FIG. 4A)
  live cell counts (Propidium Iodide-negative cells): reduction of live cell counts
[7]
  ETC Complex I activity: inhibitory effect on ETC Complex I activity
[8]
  inhibition of ERBB2/HER2: potent inhibitor
OCI-AML5 cells
  sensitivity of OCI-AML5 cells to compound-induced cell death: resistant
